# Laboratory results as given in PubChem BioAssay AID1259407 (Chemical Carcinogenesis Research Information System (CCRIS), 2018).
# Active and inactive are the calls of the source. How the calls were made is not given here.
# Tested on: CCRIS mutagenicity, Ames/micronucleus/aberration tests
# Assay: CCRIS mutagenicity studies
# [1] = Test System: AMES SALMONELLA TYPHIMURIUM, Strain/Indicator: TA98, Metabolic Activation: NONE, Method: STANDARD PLATE
# [2] = Test System: AMES SALMONELLA TYPHIMURIUM, Strain/Indicator: TA98, Metabolic Activation: RAT, LIVER, S-9, AROCLOR 1254, Method: STANDARD PLATE
# [3] = Test System: AMES SALMONELLA TYPHIMURIUM, Strain/Indicator: TA100, Metabolic Activation: NONE, Method: STANDARD PLATE
# [4] = Test System: AMES SALMONELLA TYPHIMURIUM, Strain/Indicator: TA100, Metabolic Activation: RAT, LIVER, S-9, AROCLOR 1254, Method: STANDARD PLATE
# [5] = Test System: AMES SALMONELLA TYPHIMURIUM, Strain/Indicator: TA1535, Metabolic Activation: NONE, Method: STANDARD PLATE
# [6] = Test System: AMES SALMONELLA TYPHIMURIUM, Strain/Indicator: TA1535, Metabolic Activation: RAT, LIVER, S-9, AROCLOR 1254, Method: STANDARD PLATE
# [7] = Test System: AMES SALMONELLA TYPHIMURIUM, Strain/Indicator: TA1537, Metabolic Activation: NONE, Method: STANDARD PLATE
# [8] = Test System: AMES SALMONELLA TYPHIMURIUM, Strain/Indicator: TA1537, Metabolic Activation: RAT, LIVER, S-9, AROCLOR 1254, Method: STANDARD PLATE
# [9] = Test System: AMES SALMONELLA TYPHIMURIUM, Strain/Indicator: TA1538, Metabolic Activation: NONE, Method: STANDARD PLATE
# [10] = Test System: AMES SALMONELLA TYPHIMURIUM, Strain/Indicator: TA1538, Metabolic Activation: RAT, LIVER, S-9, AROCLOR 1254, Method: STANDARD PLATE
SMILES,mutagenic call [1],mutagenic call [2],mutagenic call [3],mutagenic call [4],mutagenic call [5],mutagenic call [6],mutagenic call [7],mutagenic call [8],mutagenic call [9],mutagenic call [10],further results
C=CC(=O)OCCCCCOC(=O)C=C,inactive; negative,inactive; negative,inactive; negative,inactive; negative,inactive; negative,inactive; negative,inactive; negative,inactive; negative,inactive; negative,inactive; negative,"mutagenic call (Test System: AMES SALMONELLA TYPHIMURIUM, Strain/Indicator: TA98, Metabolic Activation: RAT, LIVER, S-9, SODIUM PHENOBARBITAL, Method: STANDARD PLATE): inactive; negative; mutagenic call (Test System: AMES SALMONELLA TYPHIMURIUM, Strain/Indicator: TA100, Metabolic Activation: RAT, LIVER, S-9, SODIUM PHENOBARBITAL, Method: STANDARD PLATE): inactive; negative; mutagenic call (Test System: AMES SALMONELLA TYPHIMURIUM, Strain/Indicator: TA1535, Metabolic Activation: RAT, LIVER, S-9, SODIUM PHENOBARBITAL, Method: STANDARD PLATE): inactive; negative; mutagenic call (Test System: AMES SALMONELLA TYPHIMURIUM, Strain/Indicator: TA1537, Metabolic Activation: RAT, LIVER, S-9, SODIUM PHENOBARBITAL, Method: STANDARD PLATE): inactive; negative; mutagenic call (Test System: AMES SALMONELLA TYPHIMURIUM, Strain/Indicator: TA1538, Metabolic Activation: RAT, LIVER, S-9, SODIUM PHENOBARBITAL, Method: STANDARD PLATE): inactive; negative"
CCc1c2ccccc2cc2c3c(ccc12)[C@H](O)[C@@H](O)[C@H]1O[C@@H]31,–,–,–,–,–,–,–,–,–,–,"mutagenic call (Test System: AMES SALMONELLA TYPHIMURIUM, Strain/Indicator: TA98, Metabolic Activation: NONE, Method: PREINCUBATION): active; positive; mutagenic call (Test System: AMES SALMONELLA TYPHIMURIUM, Strain/Indicator: TA100, Metabolic Activation: NONE, Method: PREINCUBATION): active; positive; mutagenic call (Test System: CHINESE HAMSTER V-79, Strain/Indicator: V-79/6-THIOGUANINE, Metabolic Activation: NONE): active; positive"
CC(C)N(C(=O)SC/C(Cl)=C/Cl)C(C)C,inactive; negative,active; positive,inactive; negative,active; positive,inactive; negative,active; positive,inactive; negative,inactive; negative,inactive; negative,inactive; negative,–
CNC(=O)OCc1nc(SC)n(C)c1COC(=O)NC,–,–,–,–,–,–,–,–,–,–,"mutagenic call (Test System: Mouse lymphoma, Strain/Indicator: L5178Y (tk+/tk-), Metabolic Activation: None, Method: Suspension/plate): active; positive; mutagenic call (Test System: Mouse lymphoma, Strain/Indicator: L5178Y (tk+/tk-), Metabolic Activation: Rat, Liver, S-9, Aroclor 1254, Method: Suspension/plate): active; positive"
COC(=O)C1(C(N)=O)OC1(C)C(O)C(C)C (stereo unspecified),inactive; negative,active; positive,inactive; negative,inactive; negative,–,–,–,–,–,–,"mutagenic call (Test System: AMES SALMONELLA TYPHIMURIUM, Strain/Indicator: TA98, Metabolic Activation: NONE, Method: DISK ASSAY): inactive; negative; mutagenic call (Test System: AMES SALMONELLA TYPHIMURIUM, Strain/Indicator: TA98, Metabolic Activation: RAT, LIVER, S-9, AROCLOR 1254, Method: DISK ASSAY): inactive; negative"
